Where two headings read alike, the source gives them in different places.
Molecular target: T1, human CCR6 (Homo sapiens, UniProt P51684)
T1 sequence (P51684 1-374): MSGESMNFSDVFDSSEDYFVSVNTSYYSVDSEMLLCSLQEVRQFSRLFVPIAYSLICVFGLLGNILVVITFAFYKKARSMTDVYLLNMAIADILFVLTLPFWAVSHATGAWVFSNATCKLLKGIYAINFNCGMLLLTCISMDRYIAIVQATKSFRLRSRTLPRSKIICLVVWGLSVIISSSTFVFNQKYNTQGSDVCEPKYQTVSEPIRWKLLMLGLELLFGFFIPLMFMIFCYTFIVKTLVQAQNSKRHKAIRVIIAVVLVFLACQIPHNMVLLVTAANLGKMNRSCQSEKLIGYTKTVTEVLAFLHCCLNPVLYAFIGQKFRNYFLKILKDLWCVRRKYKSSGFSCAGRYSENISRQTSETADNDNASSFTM
Test: Human CCR6-CRE reporter assay
Assay type: cell-based
Set-up: The second construct contained the open reading frame of human CCR6 in the pUNO1 backbone; host or cells: 293FT cells (transient transfection with TransIT-293)
Method: 293FT cells were transfected with 2 constructs using TransIT-293 (Mirus). The first construct (pGL4.29, Promega) expressed the luciferase reporter gene luc2P in response to the binding of cAMP-induced CREB to the CREelement in its promoter. The second construct contained the open reading frame of human CCR6 in the pUNO1 backbone under the control of an enhanced CMV promoter(InVivoGen).48 h after transfection, cells were harvested and diluted to 750,000 cells/ml in culture medium (DMEM, 10% FBS, 1× pen/strep(Gibco 15140)). Compounds were 2.5-fold serially diluted in DMSO. Further dilutions were made in assay medium (DMEM, 10% FBS, 1× pen/strep, 6 μM Forskolin, 6 nM CCL20). 4 μl of the compound solution was added to a white MW384 plate, followed by […] of the cell suspension. Final DMSO concentration in the assay was 0.1%. The MW384 plate was placed in an incubator at 37° C., 5% CO2 for 5 h. Luciferase activity was determined by addition of 24 μl of a 2.5× diluted BriteLite luciferase solution(Perkin Elmer), followed by luminescence measurement using a VICTOR Plate reader (Perkin Elmer). […] The relative Log IC50 was determined with GraphPad Prism 9 using a four-parameter dose-response model.

[1] = 293FT cells transfected with human CCR6 and CRE-luciferase, Forskolin + CCL20, 5 h, relative Log IC50, read-out: CCR6-CRE reporter (converted)
[2] = scaffold variant X = O, R1 = CF3, read-out: Activity in human CCR6-CRE reporter assay

**Q.** `N#Cc1ccc(-c2ccc(S(=O)(=O)N3CCC(Nc4cccc(OC(F)F)c4)CC3)cc2)cc1` [Example 2, 4′-[(4-{[3-(difluoromethoxy)phenyl]Amino}piperidin-1-yl)sulfonyl]-[1,1′-biphenyl]-4-carbonitrile] was tested. Which IC50 [1] did it give?
**A.** Its IC50 is 0.398 µM.

**Q.** `NC(=O)c1cccc(-c2ccc(S(=O)(=O)N3CCC(Nc4ccc(OC(F)(F)F)cc4)CC3)cc2)c1` [Example 5, 4′-[(4-{[4-(trifluoromethoxy)phenyl]Amino}piperidin-1-yl)sulfonyl]-[1,1′-biphenyl]-3-carboxamide] was tested. Which IC50 [1] did it give?
**A.** Its IC50 is 0.126 µM.

**Q.** With `N#Cc1ccc(-c2ccc(S(=O)(=O)N3CCC(Nc4ccc(OC(F)(F)F)cn4)CC3)cc2)cc1` [Example 7, 4′-[(4-{[5-(trifluoromethoxy)pyridin-2-yl]Amino}piperidin-1-yl)sulfonyl]-[1,1′-biphenyl]-4-carbonitrile] as the molecule, how does the IC50 [1] read?
**A.** Its IC50 is 0.2 µM.

**Q.** With `NC(=O)c1cccc(-c2ccc(S(=O)(=O)N3CCC(Nc4ccc(OC(F)(F)F)cn4)CC3)cc2)c1` [Example 9, 4′-[(4-{[5-(trifluoromethoxy)pyridin-2-yl]Amino}piperidin-1-yl)sulfonyl]-[1,1′-biphenyl]-3-carboxamide] as the molecule, how does the IC50 [1] read?
**A.** Its IC50 is 0.0794 µM.

**Q.** With `O=C1NCc2ccc(-c3ccc(S(=O)(=O)N4CCC(Nc5cccc(OC(F)(F)F)c5)CC4)cc3)cc21` [Example 10, 6-{4-[(4-{[3-(trifluoromethoxy)phenyl]Amino}piperidin-1-yl)sulfonyl]phenyl}-2,3-dihydro-1H-isoindol-1-one] as the molecule, how does the IC50 [1] read?
**A.** The IC50 was 3.16 µM.

**Q.** How did the IC50 [2] turn out when `O=S(=O)(c1ccc(-c2ccc3nccn3c2)cc1)N1CCC(Nc2ccc(OC(F)(F)F)cn2)CC1` [Example 12, N-[1-(4-{imidazo[1,2-a]pyridin-6-yl}benzenesulfonyl)piperidin-4-yl]-5-(trifluoromethoxy)pyridin-2-amine] was run?
**A.** The IC50 was 0.15 µM.

**Q.** With `Cc1cnc2ccc(-c3ccc(S(=O)(=O)N4CCC(Nc5ccc(OC(F)(F)F)cc5)CC4)cc3)cn12` [Example 16, 1-(4-{3-methylimidazo[1,2-a]pyridin-6-yl}benzenesulfonyl)-N-[4-(trifluoromethoxy)phenyl]piperidin-4-amine] as the molecule, how does the IC50 [1] read?
**A.** The IC50 was 0.0794 µM.

**Q.** How did the IC50 [1] turn out when `COCc1nnc2ccc(-c3ccc(S(=O)(=O)N4CCC(Nc5ccc(OC(F)(F)F)cc5)CC4)cc3)cn12` [Example 22, 1-{4-[3-(methoxymethyl)-[1,2,4]triazolo[4,3-a]pyridin-6-yl]benzenesulfonyl}-N-[4-(trifluoromethoxy)phenyl]piperidin-4-amine] was run?
**A.** The IC50 was 0.251 µM.

**Q.** Which IC50 [1] does the source give for `O=S(=O)(c1ccc(-c2ccccc2)cc1)N1CCC(Nc2ccc(OC(F)(F)F)cc2)CC1` [Example 25, 1-{[1,1′-biphenyl]-4-sulfonyl}-N-[4-(trifluoromethoxy)phenyl]piperidin-4-amine] here?
**A.** The IC50 was 0.631 µM.

**Q.** And the IC50 [2]?
**A.** The IC50 was 1.1 µM.

**Q.** `O=S(=O)(c1ccc(-c2ccccc2)cc1)N1CCC(Nc2ccc(OC(F)F)cc2)CC1` [Example 26, 1-{[1,1′-biphenyl]-4-sulfonyl}-N-[4-(difluoromethoxy)phenyl]piperidin-4-amine] was tested. Which IC50 [1] did it give?
**A.** The IC50 was 0.501 µM.

**Q.** `Cc1n[nH]c2ccc(-c3ccc(S(=O)(=O)N4CCC(Nc5ccc(OC(F)F)cc5)CC4)cc3)cc12` [Example 27, N-[4-(difluoromethoxy)phenyl]-1-[4-(3-methyl-1H-indazol-5-yl)benzenesulfonyl]piperidin-4-amine] was tested. Which IC50 [1] did it give?
**A.** Its IC50 is 0.2 µM.

**Q.** `CC(C)c1cnc2ccc(-c3ccc(S(=O)(=O)N4CCC(Nc5ccc(SC(F)(F)F)cc5)CC4)cc3)cn12` [Example 31, 1-{4-[3-(propan-2-yl)imidazo[1,2-a]pyridin-6-yl]benzenesulfonyl}-N-{4-[(trifluoromethyl)sulfanyl]phenyl}piperidin-4-amine] was tested. Which IC50 [1] did it give?
**A.** The IC50 was 0.0501 µM.

**Q.** Which IC50 [1] does the source give for `NC(=O)c1cc(-c2ccc(S(=O)(=O)N3CCC(Nc4ccc(SC(F)(F)F)cc4)CC3)cc2)ccn1` [Example 34, 4-(4-{[4-({4-[(trifluoromethyl)sulfanyl]phenyl}Amino)piperidin-1-yl]sulfonyl}phenyl)pyridine-2-carboxamide] here?
**A.** The IC50 was 0.0631 µM.

**Q.** Which IC50 [1] does the source give for `CC1CC(Nc2ccc(OC(F)(F)F)cc2)CCN1S(=O)(=O)c1ccc(-c2ccccc2)cc1` (stereo not shown) [Example 35, 1-{[1,1′-biphenyl]-4-sulfonyl}-2-methyl-N-[4-(trifluoromethoxy)phenyl]piperidin-4-amine] here?
**A.** Its IC50 is 2.51 µM.

**Q.** How did the IC50 [1] turn out when `CC1CC(Nc2ccc(OC(F)(F)F)cc2)CCN1S(=O)(=O)c1ccc(-c2ccc(C#N)cc2)cc1` (stereo not shown) [Example 36, 4′-[(2-methyl-4-{[4-(trifluoromethoxy)phenyl]Amino}piperidin-1-yl)sulfonyl]-[1,1′-biphenyl]-4-carbonitrile] was run?
**A.** Its IC50 is 0.398 µM.

**Q.** With `CC1CC(Nc2ccc(OC(F)(F)F)cc2)CCN1S(=O)(=O)c1ccc(-c2ccc3c(c2)C(=O)NC3)cc1` (stereo not shown) [Example 37, 6-{4-[(2-methyl-4-{[4-(trifluoromethoxy)phenyl]Amino}piperidin-1-yl)sulfonyl]phenyl}-2,3-dihydro-1H-isoindol-1-one] as the molecule, how does the IC50 [1] read?
**A.** The IC50 was 0.251 µM.

**Q.** `CNC(=O)c1cccc(-c2ccc(S(=O)(=O)N3CCC(Nc4ccc(OC(F)(F)F)cc4)CC3C)cc2)c1` (stereo not shown) [Example 38, N-methyl-4′-[(2-methyl-4-{[4-(trifluoromethoxy)phenyl]Amino}piperidin-1-yl)sulfonyl]-[1,1′-biphenyl]-3-carboxamide] was tested. Which IC50 [1] did it give?
**A.** The IC50 was 0.126 µM.

**Q.** How did the IC50 [1] turn out when `N#Cc1ccc(-c2ccc(S(=O)(=O)[C@H]3CC[C@H](Nc4ccc(OC(F)(F)F)cc4)CC3)cc2)cc1` [Example 39, 4′-{[trans-4-{[4-(trifluoromethoxy)phenyl]Amino}cyclohexyl]sulfonyl}-[1,1′-biphenyl]-4-carbonitrile] was run?
**A.** The IC50 was 0.1 µM.

**Q.** For `N#Cc1ccc(-c2ccc(S(=O)(=O)[C@H]3CC[C@H](Nc4cccc(OC(F)(F)F)c4)CC3)cc2)cc1` [Example 40, 4′-{[trans-4-{[3-(trifluoromethoxy)phenyl]Amino}cyclohexyl]sulfonyl}-[1,1′-biphenyl]-4-carbonitrile], which IC50 [1] is on record?
**A.** Its IC50 is 0.398 µM.

**Q.** `O=S(=O)(c1ccc(-c2ccc3nccn3c2)cc1)[C@H]1CC[C@H](Nc2ccc(SC(F)(F)F)cc2)CC1` [Example 45, N-[trans-4-(4-{imidazo[1,2-a]pyridin-6-yl}benzenesulfonyl)cyclohexyl]-4-[(trifluoromethyl)sulfanyl]aniline] was tested. Which IC50 [1] did it give?
**A.** The IC50 was 0.0794 µM.

**Q.** For `CC(C)c1cnc2ccc(-c3ccc(S(=O)(=O)[C@H]4CC[C@H](Nc5cccc(SC(F)(F)F)c5)CC4)cc3)cn12` [Example 47, N-[trans-4-{4-[3-(propan-2-yl)imidazo[1,2-a]pyridin-6-yl]benzenesulfonyl}cyclohexyl]-3-[(trifluoromethyl)sulfanyl]aniline], which IC50 [1] is on record?
**A.** The IC50 was 0.1 µM.

**Q.** How did the IC50 [1] turn out when `Cc1cc(-c2ccc(S(=O)(=O)[C@H]3CC[C@H](Nc4ccc(SC(F)(F)F)cc4)CC3)cc2)cn2c(C(C)C)cnc12` [Example 48, N-[trans-4-{4-[8-methyl-3-(propan-2-yl)imidazo[1,2-a]pyridin-6-yl]benzenesulfonyl}cyclohexyl]-4-[(trifluoromethyl)sulfanyl]aniline] was run?
**A.** Its IC50 is 0.0794 µM.

**Q.** How did the IC50 [1] turn out when `NC(=O)c1cc(-c2ccc(S(=O)(=O)[C@H]3CC[C@H](Nc4ccc(SC(F)(F)F)cc4)CC3)cc2)ccn1` [Example 49, 4-(4-{[trans-4-({4-[(trifluoromethyl)sulfanyl]phenyl}Amino)cyclohexyl]sulfonyl}phenyl)pyridine-2-carboxamide] was run?
**A.** Its IC50 is 0.0631 µM.

**Q.** `O=c1[nH]nc2ccc(-c3ccc(S(=O)(=O)[C@H]4CC[C@H](Nc5ccc(SC(F)(F)F)cc5)CC4)cc3)cn12` [Example 50, 6-(4-{[trans-4-({4-[(trifluoromethyl)sulfanyl]phenyl}Amino)cyclohexyl]sulfonyl}phenyl)-2H,3H-[1,2,4]triazolo[4,3-a]pyridin-3-one] was tested. Which IC50 [1] did it give?
**A.** Its IC50 is 0.0794 µM.

Reference: US20250353859A1, “COMPOUNDS AS CCR6 INHIBITORS” (Hoffmann-La Roche Inc., priority 2023, published 2025)
